Laboratory results from publication PMC5218480 (PLoS ONE, 2017).

Test system: MV-4-11 cells
Experiment: Gene expression microarray analysis (Affymetrix PrimeView) and GSEA
Format: cell-based, human
Set-up: RFU PODN (11730768_x_at) / Fold change /veh PODN (11730768_x_at) / RFU LINC00158 (11744669_a_at) / Fold change /veh LINC00158 (11744669_a_at) / RFU DUSP10 (11751237_a_at) / Fold change /veh DUSP10 (11751237_a_at) / RFU ID3 (11757404_x_at) / Fold change /veh ID3 (11757404_x_at) / RFU PLEKHG5 (11737974_s_at) / Fold change /veh PLEKHG5 (11737974_s_at) / RFU LRRC4B (11730491_at) / Fold change /veh LRRC4B (11730491_at) / RFU GIMAP4 (11747438_a_at) / Fold change /veh GIMAP4 (11747438_a_at) / RFU KRT8 (11758183_x_at) / Fold change /veh KRT8 (11758183_x_at) / RFU CNN1 (11734310_a_at) / Fold change /veh CNN1 (11734310_a_at) / RFU VPS37D (11726825_at) / Fold change /veh VPS37D (11726825_at) / RFU C10orf10 (11716522_x_at) / Fold change /veh C10orf10 (11716522_x_at) / RFU KIR2DL2 /// KIR2DL4 /// KIR2DL5A /// KIR2DL5B /// KIR2DS1 /// KIR2DS2 /// KIR2DS3 /// KIR2DS4 /// KIR3DL3 /// KIR3DL3 /// KIR3DS1 (11738374_at) / Fold change /veh KIR2DL2 /// KIR2DL4 /// KIR2DL5A /// KIR2DL5B /// KIR2DS1 /// KIR2DS2 /// KIR2DS3 /// KIR2DS4 /// KIR3DL3 /// KIR3DL3 /// KIR3DS1 (11738374_at) / RFU C1QL1 (11718748_at) / Fold change /veh C1QL1 (11718748_at) / RFU TMPRSS4 (11747572_a_at) / Fold change /veh TMPRSS4 (11747572_a_at) / RFU HAMP (11756126_x_at) / Fold change /veh HAMP (11756126_x_at) / RFU RNFT2 (11725882_a_at) / Fold change /veh RNFT2 (11725882_a_at) / RFU NR4A2 (11747474_a_at) / Fold change /veh NR4A2 (11747474_a_at) / RFU ABCC12 (11746883_a_at) / Fold change /veh ABCC12 (11746883_a_at) / RFU TMEM136 (11760407_x_at) / Fold change /veh TMEM136 (11760407_x_at) / RFU CLDN22 /// WWC2 (11732394_at) / Fold change /veh CLDN22 /// WWC2 (11732394_at) / RFU HLA-DPB1 (11760878_x_at) / Fold change /veh HLA-DPB1 (11760878_x_at) / RFU SPINT1 (11716480_a_at) / Fold change /veh SPINT1 (11716480_a_at) / RFU GAP43 (11754022_s_at) / Fold change /veh GAP43 (11754022_s_at) / RFU A4GNT (11735810_at) / Fold change /veh A4GNT (11735810_at) / RFU PRB3 (11715151_x_at) / Fold change /veh PRB3 (11715151_x_at) / RFU TUBB4B (11761932_at) / Fold change /veh TUBB4B (11761932_at) / RFU CAPN14 (11732068_a_at) / Fold change /veh CAPN14 (11732068_a_at) / RFU TMCC2 (11721928_a_at) / Fold change /veh TMCC2 (11721928_a_at) / RFU IRGQ (11745062_a_at) / Fold change /veh IRGQ (11745062_a_at) / RFU FAM174B (11720279_a_at) / Fold change /veh FAM174B (11720279_a_at) / RFU TMPRSS4 (11748680_a_at) / Fold change /veh TMPRSS4 (11748680_a_at) / RFU FAM212B (11763350_a_at) / Fold change /veh FAM212B (11763350_a_at) / RFU PLEKHG5 (11743358_a_at) / Fold change /veh PLEKHG5 (11743358_a_at) / RFU ZSCAN30 (11745921_a_at) / Fold change /veh ZSCAN30 (11745921_a_at) / RFU CMKLR1 (11741424_a_at) / Fold change /veh CMKLR1 (11741424_a_at) / RFU LOC101060620 /// MAPK8IP1 (11723275_at) / Fold change /veh LOC101060620 /// MAPK8IP1 (11723275_at) / RFU SPTSSB (11747773_x_at) / Fold change /veh SPTSSB (11747773_x_at) / RFU PRSS12 (11739890_at) / Fold change /veh PRSS12 (11739890_at) / RFU BIN1 (11741810_x_at) / Fold change /veh BIN1 (11741810_x_at) / RFU WNT11 (11732464_a_at) / Fold change /veh WNT11 (11732464_a_at) / RFU C10orf10 (11716521_a_at) / Fold change /veh C10orf10 (11716521_a_at) / RFU C5orf56 (11738089_at) / Fold change /veh C5orf56 (11738089_at) / RFU CYB561 (11721691_x_at) / Fold change /veh CYB561 (11721691_x_at) / RFU ANKRD19P (11752326_a_at) / Fold change /veh ANKRD19P (11752326_a_at) / RFU OR2T12 /// OR2T33 /// OR2T8 (11738714_s_at) / Fold change /veh OR2T12 /// OR2T33 /// OR2T8 (11738714_s_at) / RFU VCAN (11748164_a_at) / Fold change /veh VCAN (11748164_a_at) / RFU JSRP1 (11732532_at) / Fold change /veh JSRP1 (11732532_at) / RFU KRTAP10-11 (11738290_x_at) / Fold change /veh KRTAP10-11 (11738290_x_at) / RFU MYO3A (11730013_a_at) / Fold change /veh MYO3A (11730013_a_at) / RFU EBF3 (11725865_a_at) / Fold change /veh EBF3 (11725865_a_at) / RFU CAMK2N1 (11719241_x_at) / Fold change /veh CAMK2N1 (11719241_x_at) / RFU C5orf56 (11738088_a_at) / Fold change /veh C5orf56 (11738088_a_at) / RFU OLFML3 (11715873_a_at) / Fold change /veh OLFML3 (11715873_a_at) / RFU LOC100653217 /// NTM (11731650_a_at) / Fold change /veh LOC100653217 /// NTM (11731650_a_at) / RFU MAPK11 (11762145_a_at) / Fold change /veh MAPK11 (11762145_a_at) / RFU FIZ1 (11724087_x_at) / Fold change /veh FIZ1 (11724087_x_at) / RFU OASL (11726364_x_at) / Fold change /veh OASL (11726364_x_at) / RFU SOX15 (11748057_x_at) / Fold change /veh SOX15 (11748057_x_at) / RFU CD79A (11719716_a_at) / Fold change /veh CD79A (11719716_a_at) / RFU HIST1H1D (11736915_at) / Fold change /veh HIST1H1D (11736915_at) / RFU CASKIN2 (11723855_a_at) / Fold change /veh CASKIN2 (11723855_a_at) / RFU LOC730098 (11760151_x_at) / Fold change /veh LOC730098 (11760151_x_at) / RFU OR4N2 (11742367_at) / Fold change /veh OR4N2 (11742367_at) / RFU PRRT2 (11749266_a_at) / Fold change /veh PRRT2 (11749266_a_at) / RFU SNX32 (11753110_a_at) / Fold change /veh SNX32 (11753110_a_at) / RFU CDHR5 (11726645_a_at) / Fold change /veh CDHR5 (11726645_a_at) / RFU RCAN1 (11760418_a_at) / Fold change /veh RCAN1 (11760418_a_at) / RFU FAM167A (11723789_a_at) / Fold change /veh FAM167A (11723789_a_at) / RFU FAM26E (11764081_at) / Fold change /veh FAM26E (11764081_at) / RFU ISYNA1 (11749810_s_at) / Fold change /veh ISYNA1 (11749810_s_at) / RFU ACY1 (11761880_at) / Fold change /veh ACY1 (11761880_at) / RFU 11764098_at / Fold change /veh 11764098_at / RFU SAMD14 (11745864_x_at) / Fold change /veh SAMD14 (11745864_x_at) / RFU NPB (11741838_a_at) / Fold change /veh NPB (11741838_a_at) / RFU TMPRSS6 (11731388_a_at) / Fold change /veh TMPRSS6 (11731388_a_at) / RFU KRTAP10-2 (11738614_at) / Fold change /veh KRTAP10-2 (11738614_at) / RFU ARHGAP8 /// PRR5-ARHGAP8 (11727945_x_at) / Fold change /veh ARHGAP8 /// PRR5-ARHGAP8 (11727945_x_at) / RFU KRTAP5-7 /// NADSYN1 (11734609_at) / Fold change /veh KRTAP5-7 /// NADSYN1 (11734609_at) / RFU RASL12 (11751679_a_at) / Fold change /veh RASL12 (11751679_a_at) / RFU CDKN2B (11736163_a_at) / Fold change /veh CDKN2B (11736163_a_at) / RFU PRF1 (11729649_at) / Fold change /veh PRF1 (11729649_at) / RFU, ZNF638 /// ZNF638-IT1 / Fold change vs veh, ZNF638 /// ZNF638-IT1 / RFU, PANK3 / Fold change vs veh, PANK3 / RFU, SH3YL1 / Fold change vs veh, SH3YL1 / RFU, ZEB2 / Fold change vs veh, ZEB2 / RFU, NRIP1 / Fold change vs veh, NRIP1 / RFU, PTTG1IP / Fold change vs veh, PTTG1IP / RFU, CAPN2 / Fold change vs veh, CAPN2 / RFU, MED14 / Fold change vs veh, MED14 / RFU, SNORA58 / Fold change vs veh, SNORA58 / RFU, C1orf63 / Fold change vs veh, C1orf63 / RFU, LRRFIP1 / Fold change vs veh, LRRFIP1 / RFU, NDUFAF7 / Fold change vs veh, NDUFAF7 / RFU, SLC12A2 / Fold change vs veh, SLC12A2 / RFU, IBTK / Fold change vs veh, IBTK / RFU, ESF1 / Fold change vs veh, ESF1 / Fold change vs veh, TMEM50B / RFU, TAOK1 / Fold change vs veh, TAOK1 / RFU, ACBD3 / Fold change vs veh, ACBD3 / RFU, TMA16 / Fold change vs veh, TMA16 / RFU, RWDD3 / Fold change vs veh, RWDD3 / RFU, BCAT1 / Fold change vs veh, BCAT1 / RFU, EDEM3 / Fold change vs veh, EDEM3 / RFU, TMEM33 / Fold change vs veh, TMEM33 / RFU, WDR75 / Fold change vs veh, WDR75 / RFU, AHCTF1 / Fold change vs veh, AHCTF1 / RFU, TFRC / Fold change vs veh, TFRC / RFU, ZDHHC17 / Fold change vs veh, ZDHHC17 / RFU, NOM1 / Fold change vs veh, NOM1 / RFU, ARL8B / Fold change vs veh, ARL8B / RFU, ZBTB11 / Fold change vs veh, ZBTB11 / RFU, TAMM41 / Fold change vs veh, TAMM41 / RFU, KIAA1704 /// LOC100996395 / Fold change vs veh, KIAA1704 /// LOC100996395 / RFU, ING1 / Fold change vs veh, ING1 / RFU, TRMT61B / Fold change vs veh, TRMT61B / RFU, FUBP3 / Fold change vs veh, FUBP3 / RFU, TP53 / Fold change vs veh, TP53 / RFU, TNKS2 / Fold change vs veh, TNKS2 / RFU, ZFP14 / Fold change vs veh, ZFP14 / RFU, ACTR2 / Fold change vs veh, ACTR2 / RFU, PPP3R1 / Fold change vs veh, PPP3R1 / RFU, PIK3R1 / Fold change vs veh, PIK3R1 / RFU, HNRNPA1 / Fold change vs veh, HNRNPA1 / RFU, RNF170 / Fold change vs veh, RNF170 / RFU, ZNF28 / Fold change vs veh, ZNF28 / RFU, RNGTT / Fold change vs veh, RNGTT / RFU, OGT / Fold change vs veh, OGT / RFU, BRD1 / Fold change vs veh, BRD1 / RFU, MARS / Fold change vs veh, MARS / RFU, ZNF655 / Fold change vs veh, ZNF655 / RFU, FAHD1 / Fold change vs veh, FAHD1 / RFU, BDP1 / Fold change vs veh, BDP1 / RFU, LRRCC1 / Fold change vs veh, LRRCC1 / RFU, ARID1A / Fold change vs veh, ARID1A / RFU, ZNF146 / Fold change vs veh, ZNF146 / RFU, ZNF330 / Fold change vs veh, ZNF330 / RFU, GPN3 / Fold change vs veh, GPN3 / RFU, C9orf123 / Fold change vs veh, C9orf123 / RFU, N4BP2L2 / Fold change vs veh, N4BP2L2 / RFU, ARFIP1 / Fold change vs veh, ARFIP1 / RFU, FAM179B / Fold change vs veh, FAM179B / RFU, BCL10 / Fold change vs veh, BCL10 / RFU, UHRF1BP1L / Fold change vs veh, UHRF1BP1L / RFU, BET1 / Fold change vs veh, BET1 / RFU, CNOT2 / Fold change vs veh, CNOT2 / RFU, ZNF268 / Fold change vs veh, ZNF268 / Fold change vs veh, ZNF507 / RFU, DGCR2 / Fold change vs veh, DGCR2 / RFU, WDSUB1 / Fold change vs veh, WDSUB1 / Fold change vs veh, HSP90B1 /// MIR3652 / RFU, ADSS / Fold change vs veh, ADSS / RFU, GK / Fold change vs veh, GK / RFU, ZNF148 / Fold change vs veh, ZNF148 / RFU, TAF9 / Fold change vs veh, TAF9 / RFU, SLC1A5 / Fold change vs veh, SLC1A5 / RFU, SLMO2 / Fold change vs veh, SLMO2 / RFU, ABCC4 / Fold change vs veh, ABCC4 / RFU, LOC101060439 /// RAP1B / Fold change vs veh, LOC101060439 /// RAP1B / RFU, RFX7 / Fold change vs veh, RFX7 / RFU, GTPBP10 / Fold change vs veh, GTPBP10 / RFU, CNEP1R1 / Fold change vs veh, CNEP1R1 / RFU, BIVM-ERCC5 /// ERCC5 / Fold change vs veh, BIVM-ERCC5 /// ERCC5 / RFU, ILF3 / Fold change vs veh, ILF3 / RFU 11762660_at / Fold change /veh 11762660_at / RFU VCAN (11757783_s_at) / Fold change /veh VCAN (11757783_s_at) / RFU DDX43 (11728927_at) / Fold change /veh DDX43 (11728927_at) / RFU KRT8 (11758188_x_at) / Fold change /veh KRT8 (11758188_x_at) / RFU NKD1 (11759106_at) / Fold change /veh NKD1 (11759106_at) / RFU SRD5A1 (11742802_a_at) / Fold change /veh SRD5A1 (11742802_a_at) / RFU TPSAB1 /// TPSB2 (11721975_s_at) / Fold change /veh TPSAB1 /// TPSB2 (11721975_s_at) / RFU GSTM3 (11746129_a_at) / Fold change /veh GSTM3 (11746129_a_at) / RFU IL23R (11737362_x_at) / Fold change /veh IL23R (11737362_x_at) / RFU TMEM51 (11727254_a_at) / Fold change /veh TMEM51 (11727254_a_at) / RFU PIWIL2 (11732686_x_at) / Fold change /veh PIWIL2 (11732686_x_at) / RFU ORM1 (11744905_x_at) / Fold change /veh ORM1 (11744905_x_at) / RFU CCDC152 (11743942_at) / Fold change /veh CCDC152 (11743942_at) / RFU ECM1 (11717891_a_at) / Fold change /veh ECM1 (11717891_a_at) / RFU IL23R (11748794_a_at) / Fold change /veh IL23R (11748794_a_at) / RFU TNFAIP8L3 (11732012_x_at) / Fold change /veh TNFAIP8L3 (11732012_x_at) / RFU MBOAT4 (11741988_at) / Fold change /veh MBOAT4 (11741988_at) / RFU 11764193_at / Fold change /veh 11764193_at / RFU TMEM53 (11763286_at) / Fold change /veh TMEM53 (11763286_at) / RFU MAGEB2 (11727129_at) / Fold change /veh MAGEB2 (11727129_at) / RFU TMEM200A (11744735_a_at) / Fold change /veh TMEM200A (11744735_a_at) / RFU CCDC152 (11751479_a_at) / Fold change /veh CCDC152 (11751479_a_at) / RFU FAM211A (11726209_a_at) / Fold change /veh FAM211A (11726209_a_at) / RFU RGS16 (11746705_a_at) / Fold change /veh RGS16 (11746705_a_at) / RFU VCAN (11755009_s_at) / Fold change /veh VCAN (11755009_s_at) / RFU RHOB (11743442_s_at) / Fold change /veh RHOB (11743442_s_at) / RFU RGS16 (11720943_a_at) / Fold change /veh RGS16 (11720943_a_at) / RFU RGS16 (11720944_at) / Fold change /veh RGS16 (11720944_at) / RFU, VPS4B / Fold change vs veh, VPS4B / RFU, CREB1 / Fold change vs veh, CREB1 / RFU, DNAJC13 / Fold change vs veh, DNAJC13 / RFU, GNAQ / Fold change vs veh, GNAQ / RFU, CDK5R1 / Fold change vs veh, CDK5R1 / RFU, ZRANB3 / Fold change vs veh, ZRANB3 / RFU, CUL4A / Fold change vs veh, CUL4A / RFU, CCNY / Fold change vs veh, CCNY / RFU, UFL1 / Fold change vs veh, UFL1 / RFU, COG3 / Fold change vs veh, COG3 / RFU, DIAPH2 / Fold change vs veh, DIAPH2 / RFU, SKA2 / Fold change vs veh, SKA2 / RFU, AFF3 / Fold change vs veh, AFF3 / RFU, LMF1 / Fold change vs veh, LMF1 / RFU, IPO11 / Fold change vs veh, IPO11 / RFU, DFFB / Fold change vs veh, DFFB / RFU, FOXP1 / Fold change vs veh, FOXP1 / RFU, CARD8 / Fold change vs veh, CARD8 / RFU, STRN3 / Fold change vs veh, STRN3 / RFU, ADK / Fold change vs veh, ADK / RFU, RASSF2 / Fold change vs veh, RASSF2 / RFU, WIPF1 / Fold change vs veh, WIPF1 / RFU, LARP1B / Fold change vs veh, LARP1B / RFU, RASA1 / Fold change vs veh, RASA1 / RFU, RB1 / Fold change vs veh, RB1 / RFU, PPFIA1 / Fold change vs veh, PPFIA1 / RFU, MAT2A / Fold change vs veh, MAT2A / RFU, CCT5 / Fold change vs veh, CCT5 / RFU, WDR92 / Fold change vs veh, WDR92 / RFU, CUX1 / Fold change vs veh, CUX1 / RFU, TTC7A / Fold change vs veh, TTC7A / RFU, TMEM135 / Fold change vs veh, TMEM135 / RFU, DEPTOR / Fold change vs veh, DEPTOR / RFU, CPM / Fold change vs veh, CPM / RFU, DNAJB6 / Fold change vs veh, DNAJB6 / RFU, CACNA2D3 / Fold change vs veh, CACNA2D3 / RFU, DTX4 / Fold change vs veh, DTX4 / RFU, TFCP2 / Fold change vs veh, TFCP2 / RFU, GMCL1 /// GMCL1P1 / Fold change vs veh, GMCL1 /// GMCL1P1 / RFU, AEBP2 / Fold change vs veh, AEBP2 / RFU, SNHG1 /// SNORD22 /// SNORD25 /// SNORD26 /// SNORD27 /// SNORD28 /// SNORD29 /// SNORD31 / Fold change vs veh, SNHG1 /// SNORD22 /// SNORD25 /// SNORD26 /// SNORD27 /// SNORD28 /// SNORD29 /// SNORD31 / Fold change (Aza/veh), C12orf56 (ProbeSet 11735607_a_at) / Fold change (ACY-1035/veh), C12orf56 (ProbeSet 11735607_a_at) / Fold change (Aza/veh), FGFR1OP (ProbeSet 11751329_s_at) / Fold change (ACY-1035/veh), FGFR1OP (ProbeSet 11751329_s_at) / Fold change (Aza/veh), VPS36 (ProbeSet 11739960_a_at) / Fold change (ACY-1035/veh), VPS36 (ProbeSet 11739960_a_at) / RFU SYPL1 (11715823_x_at) / Fold change /veh SYPL1 (11715823_x_at) / RFU IGFBP7 (11715501_s_at) / Fold change /veh IGFBP7 (11715501_s_at) / RFU REEP3 (11722064_at) / Fold change /veh REEP3 (11722064_at) / RFU IGLL1 (11728026_x_at) / Fold change /veh IGLL1 (11728026_x_at): dose or concentration left out as unconfirmed
Settings: MV-4-11 cells, 48 hours

Nc1ncn([C@@H]2O[C@H](CO)[C@@H](O)[C@H]2O)c(=O)n1 [azacitidine]
RFU REEP3 (11722064_at): 27.20 RFU
